Experimental data: PubChem BioAssay (NCI)
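Each compound was tested at five concentrations against cells in 96-well plates for 48 hours. Definition used: TGI = concentration required for complete inhibition of growth.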

What was measured:
Assay in all cases: NCI-60 cell line screen, 48 h
786-0 renal = test system: 786-0 renal
A498 renal = test system: A498 renal
A549 NSCLC = test system: A549 NSCLC
ACHN renal = test system: ACHN renal
BT-549 breast = test system: BT-549 breast
CAKI-1 renal = test system: CAKI-1 renal
CCRF-CEM leukemia = test system: CCRF-CEM leukemia
COLO 205 colon = test system: COLO 205 colon
DU-145 prostate = test system: DU-145 prostate
EKVX NSCLC = test system: EKVX NSCLC
HCC-2998 colon = test system: HCC-2998 colon
HCT-116 colon = test system: HCT-116 colon
HCT-15 colon = test system: HCT-15 colon
HL-60(TB) leukemia = test system: HL-60(TB) leukemia
HOP-62 NSCLC = test system: HOP-62 NSCLC
HS 578T breast = test system: HS 578T breast
HT29 colon = test system: HT29 colon
IGROV1 ovarian = test system: IGROV1 ovarian
K-562 leukemia = test system: K-562 leukemia
KM12 colon = test system: KM12 colon
LOX IMVI melanoma = test system: LOX IMVI melanoma
M14 melanoma = test system: M14 melanoma
MALME-3M melanoma = test system: MALME-3M melanoma
MCF7 breast = test system: MCF7 breast
MDA-MB-231 breast = test system: MDA-MB-231 breast
MDA-MB-435 = test system: MDA-MB-435
MDA-N = test system: MDA-N
MOLT-4 leukemia = test system: MOLT-4 leukemia
NCI-H226 lung = test system: NCI-H226 lung
NCI-H23 lung = test system: NCI-H23 lung
NCI-H460 lung = test system: NCI-H460 lung
NCI-H522 lung = test system: NCI-H522 lung
NCI/ADR-RES ovarian = test system: NCI/ADR-RES ovarian
OVCAR-3 ovarian = test system: OVCAR-3 ovarian
OVCAR-4 ovarian = test system: OVCAR-4 ovarian
OVCAR-5 ovarian = test system: OVCAR-5 ovarian
OVCAR-8 ovarian = test system: OVCAR-8 ovarian
PC-3 prostate = test system: PC-3 prostate
RPMI-8226 leukemia = test system: RPMI-8226 leukemia
SF-268 CNS = test system: SF-268 CNS
SF-295 CNS = test system: SF-295 CNS
SF-539 CNS = test system: SF-539 CNS
SK-MEL-2 melanoma = test system: SK-MEL-2 melanoma
SK-MEL-28 melanoma = test system: SK-MEL-28 melanoma
SK-MEL-5 melanoma = test system: SK-MEL-5 melanoma
SK-OV-3 ovarian = test system: SK-OV-3 ovarian
SN12C renal = test system: SN12C renal
SNB-19 CNS = test system: SNB-19 CNS
SNB-75 CNS = test system: SNB-75 CNS
SR leukemia = test system: SR leukemia
SW-620 colon = test system: SW-620 colon
T-47D breast = test system: T-47D breast
TK-10 renal = test system: TK-10 renal
U251 CNS = test system: U251 CNS
UACC-257 melanoma = test system: UACC-257 melanoma
UACC-62 melanoma = test system: UACC-62 melanoma
UO-31 renal = test system: UO-31 renal
RXF 393 renal = test system: RXF 393 renal

Question: Which results are given for `COc1ccc(CN=CN/C(C#N)=C(\N)C#N)cc1OC`?
Answer: TGI (786-0 renal): > 100 µM; TGI (A498 renal): > 100 µM; TGI (A549 NSCLC): > 100 µM; TGI (ACHN renal): > 100 µM; TGI (BT-549 breast): > 100 µM; TGI (CAKI-1 renal): > 100 µM; TGI (CCRF-CEM leukemia): > 100 µM; TGI (COLO 205 colon): > 100 µM; TGI (DU-145 prostate): > 100 µM; TGI (EKVX NSCLC): > 100 µM; TGI (HCC-2998 colon): > 100 µM; TGI (HCT-116 colon): > 100 µM; TGI (HCT-15 colon): > 100 µM; TGI (HL-60(TB) leukemia): > 100 µM; TGI (HOP-62 NSCLC): > 100 µM; TGI (HS 578T breast): > 100 µM; TGI (HT29 colon): > 100 µM; TGI (IGROV1 ovarian): > 100 µM; TGI (K-562 leukemia): > 100 µM; TGI (KM12 colon): > 100 µM; TGI (LOX IMVI melanoma): > 100 µM; TGI (M14 melanoma): > 100 µM; TGI (MALME-3M melanoma): > 100 µM; TGI (MCF7 breast): > 100 µM; TGI (MDA-MB-231 breast): > 100 µM; TGI (MDA-MB-435): > 100 µM; TGI (MDA-N): > 100 µM; TGI (MOLT-4 leukemia): > 100 µM; TGI (NCI-H226 lung): > 100 µM; TGI (NCI-H23 lung): > 100 µM; TGI (NCI-H460 lung): > 100 µM; TGI (NCI-H522 lung): > 100 µM; TGI (NCI/ADR-RES ovarian): > 100 µM; TGI (OVCAR-3 ovarian): > 100 µM; TGI (OVCAR-4 ovarian): > 100 µM; TGI (OVCAR-5 ovarian): > 100 µM; TGI (OVCAR-8 ovarian): > 100 µM; TGI (PC-3 prostate): > 100 µM; TGI (RPMI-8226 leukemia): > 100 µM; TGI (SF-268 CNS): > 100 µM; TGI (SF-295 CNS): > 100 µM; TGI (SF-539 CNS): > 100 µM; TGI (SK-MEL-2 melanoma): > 100 µM; TGI (SK-MEL-28 melanoma): > 100 µM; TGI (SK-MEL-5 melanoma): > 100 µM; TGI (SK-OV-3 ovarian): > 100 µM; TGI (SN12C renal): > 100 µM; TGI (SNB-19 CNS): > 100 µM; TGI (SNB-75 CNS): > 100 µM; TGI (SR leukemia): > 100 µM; TGI (SW-620 colon): > 100 µM; TGI (T-47D breast): > 100 µM; TGI (TK-10 renal): > 100 µM; TGI (U251 CNS): > 100 µM; TGI (UACC-257 melanoma): > 100 µM; TGI (UACC-62 melanoma): > 100 µM; TGI (UO-31 renal): > 100 µM

Question: How did the TGI (786-0 renal) turn out when `Clc1ccc(-c2nc(-c3ccc(Cl)cc3)[s+]s2)cc1` was run?
Answer: > 100 µM

Question: And the TGI (A498 renal)?
Answer: > 100 µM

Question: What about the TGI (A549 NSCLC) of the same molecule?
Answer: > 100 µM

Question: And the TGI (ACHN renal)?
Answer: > 100 µM

Question: What about the TGI (BT-549 breast) of the same molecule?
Answer: > 100 µM

Question: What about the TGI (CAKI-1 renal) of the same molecule?
Answer: > 100 µM

Question: What about the TGI (CCRF-CEM leukemia) of the same molecule?
Answer: 98.6 µM

Question: What about the TGI (COLO 205 colon) of the same molecule?
Answer: > 100 µM

Question: What about the TGI (DU-145 prostate) of the same molecule?
Answer: > 100 µM

Question: And the TGI (EKVX NSCLC)?
Answer: > 100 µM

Question: What about the TGI (HCC-2998 colon) of the same molecule?
Answer: > 100 µM

Question: What about the TGI (HCT-116 colon) of the same molecule?
Answer: > 100 µM

Question: What about the TGI (HCT-15 colon) of the same molecule?
Answer: > 100 µM

Question: What about the TGI (HOP-62 NSCLC) of the same molecule?
Answer: > 100 µM

Question: And the TGI (HS 578T breast)?
Answer: > 100 µM

Question: What about the TGI (HT29 colon) of the same molecule?
Answer: > 100 µM

Question: What about the TGI (IGROV1 ovarian) of the same molecule?
Answer: > 100 µM

Question: What about the TGI (K-562 leukemia) of the same molecule?
Answer: > 100 µM

Question: What about the TGI (KM12 colon) of the same molecule?
Answer: > 100 µM

Question: What about the TGI (LOX IMVI melanoma) of the same molecule?
Answer: > 100 µM

Question: And the TGI (M14 melanoma)?
Answer: > 100 µM

Question: What about the TGI (MALME-3M melanoma) of the same molecule?
Answer: 77.7 µM

Question: And the TGI (MCF7 breast)?
Answer: > 100 µM

Question: What about the TGI (MDA-MB-231 breast) of the same molecule?
Answer: > 100 µM

Question: What about the TGI (MDA-MB-435) of the same molecule?
Answer: > 100 µM

Question: What about the TGI (MDA-N) of the same molecule?
Answer: > 100 µM

Question: And the TGI (MOLT-4 leukemia)?
Answer: > 100 µM

Question: And the TGI (NCI-H23 lung)?
Answer: > 100 µM

Question: And the TGI (NCI-H460 lung)?
Answer: > 100 µM

Question: What about the TGI (NCI-H522 lung) of the same molecule?
Answer: > 100 µM

Question: What about the TGI (NCI/ADR-RES ovarian) of the same molecule?
Answer: > 100 µM

Question: What about the TGI (OVCAR-3 ovarian) of the same molecule?
Answer: > 100 µM

Question: And the TGI (OVCAR-4 ovarian)?
Answer: 98.9 µM

Question: What about the TGI (OVCAR-5 ovarian) of the same molecule?
Answer: > 100 µM

Question: And the TGI (OVCAR-8 ovarian)?
Answer: > 100 µM

Question: And the TGI (PC-3 prostate)?
Answer: > 100 µM

Question: And the TGI (RPMI-8226 leukemia)?
Answer: 90.6 µM

Question: What about the TGI (RXF 393 renal) of the same molecule?
Answer: > 100 µM

Question: What about the TGI (SF-268 CNS) of the same molecule?
Answer: > 100 µM

Question: What about the TGI (SF-295 CNS) of the same molecule?
Answer: > 100 µM

Question: And the TGI (SF-539 CNS)?
Answer: > 100 µM

Question: What about the TGI (SK-MEL-2 melanoma) of the same molecule?
Answer: > 100 µM

Question: What about the TGI (SK-MEL-28 melanoma) of the same molecule?
Answer: > 100 µM

Question: What about the TGI (SK-MEL-5 melanoma) of the same molecule?
Answer: > 100 µM

Question: What about the TGI (SK-OV-3 ovarian) of the same molecule?
Answer: > 100 µM

Question: What about the TGI (SN12C renal) of the same molecule?
Answer: > 100 µM

Question: And the TGI (SNB-19 CNS)?
Answer: > 100 µM

Question: And the TGI (SR leukemia)?
Answer: 94.2 µM

Question: What about the TGI (SW-620 colon) of the same molecule?
Answer: > 100 µM

Question: And the TGI (T-47D breast)?
Answer: > 100 µM

Question: And the TGI (TK-10 renal)?
Answer: 86.5 µM

Question: What about the TGI (U251 CNS) of the same molecule?
Answer: > 100 µM

Question: What about the TGI (UACC-257 melanoma) of the same molecule?
Answer: > 100 µM

Question: And the TGI (UACC-62 melanoma)?
Answer: > 100 µM

Question: And the TGI (UO-31 renal)?
Answer: > 100 µM
